Experimental data: patent US6762052B1, “DNA sequence encoding flavin-containing monooxygenase” (priority 1993, dated 2004)
Entries after “also recorded” stand apart in the source; their conditions may differ.

Target: T1, adult human liver flavin-containing monooxygenase (form 3) (Homo sapiens, UniProt P31513, E158K)
T1 sequence (P31513 1-532 E158K): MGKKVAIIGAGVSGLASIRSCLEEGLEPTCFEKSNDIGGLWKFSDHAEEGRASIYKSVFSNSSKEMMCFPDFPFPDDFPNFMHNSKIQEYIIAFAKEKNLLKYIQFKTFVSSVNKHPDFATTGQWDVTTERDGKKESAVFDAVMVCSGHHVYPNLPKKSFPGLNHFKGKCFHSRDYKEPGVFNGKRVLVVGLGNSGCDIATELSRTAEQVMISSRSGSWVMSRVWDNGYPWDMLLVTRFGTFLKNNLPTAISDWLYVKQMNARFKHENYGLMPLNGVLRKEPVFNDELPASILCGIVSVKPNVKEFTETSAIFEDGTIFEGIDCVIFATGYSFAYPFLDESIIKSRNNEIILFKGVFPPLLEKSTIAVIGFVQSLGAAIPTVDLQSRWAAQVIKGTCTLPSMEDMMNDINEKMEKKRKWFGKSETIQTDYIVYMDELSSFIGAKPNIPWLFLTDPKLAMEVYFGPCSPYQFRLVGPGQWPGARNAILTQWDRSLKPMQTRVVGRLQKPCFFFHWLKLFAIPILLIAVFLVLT
Assay: N- and S-oxygenation by cDNA-expressed HLFMO 3 (solubilized protein from E. coli transformed with pTrcHLFMO 3), HPLC
Method: In all cases examined, product formation was directly determined by HPLC analysis of organic extracts.
Competent NM522 Escherichia coli cells were transformed with the pTrc HLFMO 3 plasmid. […] After inoculation with a fresh overnight culture of NM522 containing pTrcHLFMO 3, the culture was grown at 37° C. until Abs600 was approximately 0.5 absorbance units. Finally, IPTG (0.8 mM) was added to the culture to induce expression of protein and the culture was left to grow overnight at 37° C.
The bacterial pellet was resuspended in 5 volumes of 50 mM potassium phosphate buffer (pH 8.4) containing 1% Triton X-100, 0.1% L-, α-phosphatidylcholine (L-α-lecithin) from egg yolk, 500 μM PMSF, and 1 mM EDTA. The mixture was sonicated and then centrifuged to remove cellular debris. As a control, bacterial lysate extracts from IPTG-induced pTrc99A-transformed NM522 cells (i.e., pTrc99A without the HLFMO 3 cDNA insert) were prepared under the same conditions.
Human liver samples were obtained from the Department of Surgery (UCSF) and with a protocol from the Medical College of Wisconsin (S. Wrighton).
A typical incubation mixture (final volume 0.25 ml) contained hepatic microsomes (0.4 mg of protein) or bacterial lysate (2.3 mg of protein), NADP^+ (0.5 mM), glucose-6-phosphate (2.0 mM), glucose-6-phosphate dehydrogenase (1 IU), DETAPAC (0.8 mM) and potassium phosphate buffer (50 mM, pH 8.4). Reactions were initiated by the addition of substrate and terminated at designated times by the addition of three volumes of cold dichloromethane, mixed thoroughly and centrifuged to separate the aqueous and organic fractions. N- and S-oxide metabolic products in the resulting organic extracts were separated and quantified by HPLC. […] Thiobenzamide and thiobenzamide S-oxide were quantified with this same, HPLC system employing a mobile phase of methanol/acetonitrile/60% perchloric acid (20:80:0.016, v/v) which gave retention volumes of 2.7 and 7.0 ml, respectively. […] The major metabolites formed in the incubations were also subjected to mass spectral analysis after extraction of isolated HPLC fractions.
RPLC of the S-oxide diastereomers with a Chiracel OT chiral analytical column (25 cm×0.15 cm inner diameter, Daicel Chemical Co., New York, N.Y.) was accomplished with a Beckman system, Kratos UV detector (240 nm) and a Hewlett Packard Integrator. […] Quantification was accomplished by comparing integrated HPLC peak areas after taking into account the difference in the extinction coefficients at 240 nm. Likewise, the cis and trans S-oxide diasteromers of (+)- and (−)-2-methyl-1,-benzodithiole were separated with a Chiracel OT chiral analytical column.

For CN(C)CCCCCN1c2ccccc2Sc2ccc(C(F)(F)F)cc21 [Compound 5], which “N-oxide formation, Expressed HFLMO” value (0.1 mM substrate, mean of 5 determinations ± SD) is on record?
The value was 200.0 ± 45.7 pmol/min/mg of protein.

What about the “N-oxygenase activity in the pellet” value (100,000×g pellet) of the same compound?
The value was 0.043 nmol/min/mg of protein.

What about the “share of N-oxygenase activity in the pellet” value (100,000×g pellet) of the same compound?
The value was 16%.

And the “share of N-oxygenase activity in the supernatant fraction” value (100,000×g supernatant)?
The value was 84%.

What about the “N-oxygenase activity in the supernatant fraction” value (100,000×g supernatant of solubilized recombinant HLFMO 3 protein) of the same compound?
Its value is 0.23 nmol/min/mg of protein.

And the “Vmax, Expressed HLFMO” value (N- or S-oxide formation, for the 4-bromophenyl-1,3-oxathiolanes formation of the trans S-oxide)?
Its value is 0.023 nmol/min/mg of protein.

What about the “substrate activity for human liver microsomes and expressed HLFMO 3, in words” value (human liver microsomes and solubilized protein from E. coli transformed with pTrcHLFMO 3) of the same compound?
The value was “better substrates; also recorded: excellent substrates”.

And the Km (read-out: Km, Expressed HLFMO, N- or S-oxide formation, for the 4-bromophenyl-1,3-oxathiolanes formation of the trans S-oxide)?
Its Km is 64.6 µM.
